Values joined by “and” are separate entries in the source; they are usually repeats but may differ in a detail not shown here. Equal values may be shown once.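 Following 48 hours of exposure in 96-well plates, responses at five concentrations were used to interpolate endpoints linearly. At the GI50, growth is halved. TGI denotes the concentration required for complete inhibition of growth.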 Where a SMILES comes first, the peptide text is derived from it. [ ]: non-standard residue; d: D form. Orn = NCCC[CH](N)C(=O)O
Experiments:
Assay in all cases: NCI tumour cell line growth inhibition, 48 h
U251 CNS = test system: U251 CNS
IGROV1 ovarian = test system: IGROV1 ovarian
DU-145 prostate = test system: DU-145 prostate
T-47D breast = test system: T-47D breast
A549 NSCLC = test system: A549 NSCLC
MCF7 breast = test system: MCF7 breast
CCRF-CEM leukemia = test system: CCRF-CEM leukemia
HT29 colon = test system: HT29 colon
HCT-15 colon = test system: HCT-15 colon
RPMI-8226 leukemia = test system: RPMI-8226 leukemia

SMILES | TGI (U251 CNS) | TGI (IGROV1 ovarian) | TGI (DU-145 prostate) | TGI (T-47D breast) | TGI (A549 NSCLC) | TGI (MCF7 breast) | TGI (CCRF-CEM leukemia) [nM] | TGI (HT29 colon) | TGI (HCT-15 colon) | TGI (RPMI-8226 leukemia) | GI50 (U251 CNS) [nM] | GI50 (IGROV1 ovarian) | GI50 (DU-145 prostate) | GI50 (T-47D breast) [nM] | GI50 (A549 NSCLC) | GI50 (MCF7 breast) [nM] | GI50 (CCRF-CEM leukemia) [nM] | GI50 (HT29 colon) | GI50 (HCT-15 colon) | GI50 (RPMI-8226 leukemia)
O=C(O)C#Cc1ccc([N+](=O)[O-])cc1 | > 100000 nM | > 100000 nM | > 100000 nM | > 100000 nM | > 100000 nM | > 100000 nM | > 100000 | > 100000 nM | > 100000 nM | > 100000 nM |  |  |  |  |  |  |  |  |  | 
N=C(N)c1ccc(-c2ccc(-c3ccco3)o2)cc1F | 3550 nM | 6020 nM | 11500 nM | 5540 nM | 10600 nM | 4840 nM | 8160 | 3300 nM | 4810 nM | 4680 nM | 1720 | 2130 nM | 3270 nM | 2050 | 3040 nM | 1830 | 2770 | 1290 nM | 2020 nM | 1950 nM
CC(C)CC1NC(=O)C(CCCN)NC(=O)C(C(C)C)NC(=O)C2CCCN2C(=O)C(Cc2ccccc2)NC(=O)C(CC(C)C)NC(=O)C(CCCN)NC(=O)C(C(C)C)NC(=O)C2CCCN2C(=O)C(Cc2ccccc2)NC1=O (stereo not given) (cyclo(FPV[Orn]LFPV[Orn]L); configuration not given here) | 140 nM and 117 nM | 4690 nM and 3750 nM | 1450 nM and 1970 nM | 433 nM and 1240 nM | 149 nM and 1090 nM | 373 nM and 102 nM | 320 | 266 nM and 1220 nM | 4060 nM and 4700 nM | 30.9 nM and 185 nM | < 3.25 | 180 nM and 228 nM | 18.4 nM and 52.9 nM | < 3.25 | 9.14 nM and 16.2 nM | 10.9 | 8.14 | 13.3 nM and 36.3 nM | 213 nM and 436 nM | < 3.25 nM and 11.4 nM
COc1ccc(-c2oncc2-c2cc(OC)c3c(c2)OCO3)cc1 | > 87300 nM | > 65700 nM | > 100000 nM | > 100000 nM | > 100000 nM | > 100000 nM | > 43600 | 13700 nM | > 100000 nM | > 39500 nM | 3800 | 3900 nM | 3930 nM | 4290 | 3580 nM | 1590 | 2200 | 1690 nM | 1200 nM | 3930 nM
COc1ccc(C2SC(C)C(=O)N2NC(=O)C(O)c2ccccc2)cc1 (stereo not given) | > 100000 nM | > 100000 nM | > 100000 nM | > 100000 nM | > 100000 nM | > 100000 nM | > 100000 | > 100000 nM | > 100000 nM | > 100000 nM | > 100000 | > 100000 nM | > 100000 nM | > 100000 | > 100000 nM | > 100000 | > 100000 | > 100000 nM | > 100000 nM | > 100000 nM
COc1cccc(-c2cc(NCc3ccc4c(c3)OCO4)nc(N)n2)c1 | 11200 nM | 19100 nM | 12100 nM | 50600 nM | 14900 nM | 13900 nM | > 100000 | 6840 nM | 13900 nM | 34200 nM | 55.2 | 143 nM | 125 nM | 16900 | 57 nM | 76.5 | 76.2 | 42.3 nM | 53.3 nM | 172 nM
CCN(CC)CCCC(C)Nc1ccnc2cc(Cl)c(SCc3ccccc3)cc12 (stereo not given) | 2390 nM | 4950 nM | 13500 nM | 4770 nM | 3590 nM | 1720 nM | 4940 | 1130 nM | 1630 nM | 2930 nM | 1080 | 1810 nM | 3450 nM | 1980 | 1850 nM | 506 | 442 | 338 nM | 417 nM | 633 nM
Cc1cccc2c(=O)c3c(sc12)c(NCCN)nc1ccccc13 | 1590 nM | 1260 nM | 1970 nM | 1600 nM | 1630 nM | 1420 nM | 1830 | 1610 nM | 1580 nM | 1890 nM | 840 | 582 nM | 981 nM | 685 | 823 nM | 678 | 878 | 819 nM | 821 nM | 851 nM
OCCCNC(=S)Nc1ccc(-c2nc3ccccc3s2)cc1 | > 100000 nM | 95400 nM | > 100000 nM | > 100000 nM | > 100000 nM | > 100000 nM | > 100000 | > 100000 nM | 39800 nM | > 100000 nM | 29800 | 13500 nM | 40900 nM | 16900 | 33700 nM | 32500 | 16900 | 32200 nM | 16700 nM | 26500 nM
O=C(Nc1cccc2ccccc12)c1cc2ccccc2cc1O | 4720 nM | 7270 nM | > 100000 nM | 18700 nM | 8310 nM | 7710 nM | 12100 | 12400 nM | 11600 nM | 9220 nM | 1560 | 1460 nM | 3840 nM | 2800 | 2520 nM | 1700 | 2910 | 3550 nM | 3030 nM | 1410 nM
CCOC(=O)c1c2c(n3cccc(F)c13)C(=O)c1ncccc1C2=O | 1390 nM | 24900 nM | 2840 nM | 25200 nM | 1670 nM | 1270 nM | 37500 | 5420 nM | 12200 nM | 37300 nM | 41.1 | 1600 nM | 76.1 nM | 3530 | 217 nM | 57.2 | 3710 | 1340 nM | 24.7 nM | 1910 nM
COc1ccc2oc(-c3ccc(Cl)cc3)c(N3CCN(C)CC3)c2c1 | 3140 nM | 2690 nM | 3980 nM | 6780 nM | 3940 nM | 3500 nM | 4060 | 3320 nM | 3240 nM | 4720 nM | 1640 | 1050 nM | 1880 nM | 2320 | 1830 nM | 1700 | 1710 | 1420 nM | 1620 nM | 1250 nM
COc1ccc(OC)c(/C=C/c2cnnc3ccccc23)c1 | > 10000 nM | > 10000 nM | > 10000 nM | > 10000 nM | > 10000 nM | > 10000 nM | > 10000 | > 10000 nM | > 10000 nM | > 10000 nM |  |  |  |  |  |  |  |  |  | 

Reference: PubChem BioAssay (NCI)
